Assay results taken from a melting point compilation (Tetko et al.; mined from patent text by program, amines drawn as free bases though some values may be those of a salt).

Point of comparison: `CCCCCc1ccc(-c2ccc(C(C)O)cc2)cc1` (single isomer, unassigned; (-)), melting point 83.8 °C. Against it:
- CC(=O)NCC=Cc1ccc2ncnc(Nc3ccc(Oc4ccc(C)nc4)c(Cl)c3)c2c1 — higher, 254 to 256 °C
- CC(=O)OCC1CCn2c(c(C3=C(c4cn(C)c5ccc(Br)cc45)C(=O)OC3=O)c3ccccc32)C1 (stereo not drawn) — higher, 215 to 220 °C
- CCCc1nc(Cl)c(C=O)n1Cc1ccc(-c2ccccc2-c2nnn[nH]2)cc1 — higher, 165 to 167 °C
- CCC(=O)SCC(CC(=O)c1ccccc1)C(=O)O (stereo not drawn) — lower, 76 to 78 °C
- O=C(O)Cc1ccc(OCCNC(=O)C2Cc3ccccc3N2S(=O)(=O)c2ccc(-c3ccc(F)cc3)cc2)c(Cl)c1 (stereo not drawn) — higher, 102 to 110 °C
- COC(=O)c1cc2c3ccccc3n(CC3CC3)c2s1 — higher, 110 to 111 °C
- Cc1cc(C)nc(NC(=O)NS(=O)(=O)c2ccccc2C2(O)CCC2)n1 — higher, 148 to 150 °C
- Cc1c(C)c2c(c(C)c1O)CCC(C)(C(=O)NCC1(c3ccc(-n4c(C)ccc4C)cc3)CCCC1)O2 (stereo not drawn) — higher, 90 to 94 °C
- O=c1ccc(S(=O)(=O)c2cc3ccccc3s2)n[nH]1 — higher, 209 to 210 °C
- C=CCOC(=O)c1ccc(NCCCCCCCCCCCCCCCC)cc1 — lower, 81 to 83 °C
- O=C(Nc1nccs1)c1nc(-c2cccc3ccccc23)[nH]c1-c1ccc(Cl)cc1 — higher, 206 to 208 °C
- Cc1c(NC(=O)CC(C)(C)C)c(C)c2c(c1-c1nccs1)OCC2c1ccc(C(C)C)cc1 (stereo not drawn) — higher, 164 to 166 °C
- CC1(C)OC(=S)Nc2ccc(-c3cc(F)cc(Br)c3)cc21 — higher, 221 to 222 °C
- Cn1nc(-c2c(F)cccc2Cl)nc1C(C)(O)c1ccc(Cl)cc1 (stereo not drawn) — higher, 198 to 200 °C
- Cn1nc(SCSc2nn(C)c3ccc(Cl)cc3c2=O)c(=O)c2cc(Cl)ccc21 — higher, 352 to 354 °C
- CC(C)N1CC(=O)N(c2ccc(O)cc2F)C1=O — higher, 190 to 192 °C
- CC(CF)(CF)C(O)C(Oc1cccc(C(F)(F)F)c1)n1ccnc1 (stereo not drawn) — higher, 107 to 120 °C
- CC(=O)Nc1cccc(NC(C)=O)c1 — higher, 190 to 191 °C
- COC(=O)CSC=C1C(=O)OC(C)(C)OC1=O — higher, 117 to 118 °C
- CCCN1NCc2c(C3C(=O)Nc4ccc(Cl)cc43)ncnc21 (stereo not drawn) — higher, 293 to 297 °C
- CCN1CCC(N(C)S(=O)(=O)c2ccc(Nc3nccc(Nc4ccc(F)cc4)n3)cc2)CC1 — higher, 162 to 163 °C
- Clc1nc(Cl)c2occc2n1 — higher, 107 °C
- O=c1cnn(-c2ccc(Cl)c(C(c3ccc(Cl)cc3)c3nc(-c4ccccc4)c(CNC(=S)Nc4ccccc4)s3)c2Cl)c(=O)[nH]1 (stereo not drawn) — higher, 159 °C
- CS(=O)(=O)c1ccc(-c2cnn(C=C(F)C(F)(F)C(F)(F)F)c(=O)c2-c2ccc(F)cc2)cc1 — higher, 167 to 169 °C
- CC(C)C1NS(=O)(=O)N(CCl)C1=O (stereo not drawn) — lower, 71 to 72 °C
- CS(=O)(=O)Nc1ccc(C(=O)CN2CCN(c3cccnc3)CC2)cc1 — higher, 197 to 198 °C
- CC(CN1CCCC1)N1c2ccccc2Sc2ccc(C(N)=S)cc21 (racemic) — higher, 150 °C
- O=C(C=Cc1ccncc1)c1ccco1 — higher, 122 to 124 °C
- Cc1ccccc1S(=O)(=O)NC(=O)c1ccc2c(ccn2Cc2cccc([N+](=O)[O-])c2)c1 — higher, 208 to 210 °C
- Cc1cccc2[nH]c(Nc3ccc(CC(=O)O)cc3)nc12 — higher, 385 to 387 °C
- CN1CCN(Cc2nnc(S)n2Cc2cccc(F)c2)CC1 — higher, 180 °C
- Cc1nc(N2CCc3ccccc3CC2)c(C#N)c(=O)n1CC#N — higher, > 200 °C
- O=C1C(CCO)Oc2cc([N+](=O)[O-])ccc2N1Cc1cccc([N+](=O)[O-])c1 (stereo not drawn) — higher, 157 to 160 °C
- Cc1ccccc1C(=O)c1[nH]c2cc(Cl)ccc2c1CC(=O)O — higher, 150 to 152 °C
- C=C(C)Cn1c(=O)c2ccccc2n1C(=O)OCC — lower, 48 to 50 °C
- OCC(O)Cn1ncc2c(N(Cc3cccc(Cl)c3)C3CCCC3)ncnc21 (stereo not drawn) — higher, 98 to 100 °C
- CNc1cc(F)cc(NC)c1[N+](=O)[O-] — higher, 198 °C
- CSc1ccc(-c2c(Br)cnn2-c2ccc(F)cc2)cc1 — higher, 85 to 87 °C
- O=S(=O)(c1ccc(F)cc1)N1CCCC1c1ccc(F)cc1 (racemic) — higher, 121 °C
- CNc1nc(-c2cccc(NC(=O)Nc3ccccc3)c2)c2cc(OC)c(OC)cc2n1 — higher, 218 to 220 °C
- Oc1ccccc1-c1ccncc1 — higher, 218 to 220 °C
- CCCN(Cc1ccc(-c2ccccc2-c2nnn[nH]2)cc1)c1nn(C)cc1C(=O)O — higher, 101 to 105 °C
- Cc1oc2cc(C3CCNC(=O)C3)ccc2c1C (stereo not drawn) — higher, 195 to 197 °C
- CC(=O)NCCc1nnc(S)s1 — higher, 157 to 160 °C
- COCCOc1ccc(CSc2cnn(C(C)(C)C)c(=O)c2Cl)cc1 — higher, 106 to 107 °C
- COc1ccc(N)c(CCc2ccccn2)c1 — lower, 77.5 to 78.5 °C
- COc1cc(C)nc(-n2cccn2)n1 — lower, 52.5 to 53 °C
- Cc1ccc(-c2c(C(=O)NCc3cc(C(F)(F)F)cc(C(F)(F)F)c3)oc(=O)c3cnccc23)cc1 — higher, 188 to 189 °C
- Cc1cc(Cl)ccc1N=Cc1ccc(Cl)cc1 — lower, 75 to 76 °C
- CC(C)(C)OC(=O)N1CCC(c2c[nH]c3ccc(N)cc23)CC1 — higher, 205 to 207 °C
- O=C(O)C1CC(=C2CCN(c3ccccc3)C2=O)c2ccc(Cl)cc2N1 (stereo not drawn) — higher, > 200 °C
- CCOC(=O)c1ncn2c1c(=O)n(CC)c1ncccc12 — higher, 216 to 217 °C
- O=C1NCCc2[nH]c3c(OCc4ccccc4)cccc3c21 — higher, 182 to 185 °C
- O=[N+]([O-])c1ccc2nc(N3CCNCC3)ccc2c1 — higher, 153 °C
- CC(=NN(C)C(=O)c1ccccc1)c1ccncc1 — higher, 128 °C
- Cc1cc(-c2nc3cccnn3c2-c2ccnc(NC(=O)c3ccccn3)c2)ccc1F — higher, 234 to 235 °C
- CC(=O)NCCCC(=O)N1CCCC(=O)c2ccc(Cl)cc2CCC1=O — higher, 135 to 136 °C
- COc1ccc2c(c1)C13CCCCC1(CC2)CCN3C (stereo not drawn) — higher, 100 to 102 °C
- CCC(CC)c1ccc(Cl)c2nc3n(c12)CCN3c1ccc(Cl)cc1C(N)=O — higher, > 300 °C
- COC(=O)C(C(=O)OC)=C(/C=C/Cl)CCl — lower, 56 °C
- CCn1cc(-c2c(-c3ccc(F)cc3)nn3ccncc23)ccc1=O — higher, 165 to 166 °C
- CCOC(=O)c1cc2oc3c(n2n1)CCOC3 — higher, 116 to 118 °C
- CCCCCCCCCCCCC1=C(OC(=O)OC)C(=O)c2ccccc2C1=O — lower, 70 to 72 °C
- O=C1CCC2=C1C(c1ccc3nonc3c1)C1=C(CCC1=O)N2 — higher, 272 to 273 °C
- ClC(c1ccccc1)(c1ccccc1)c1ccc2ccccc2c1 — higher, 92 to 93 °C
- NCC1CCc2[nH]c3cc(Cl)c(Cl)cc3c2C1 (stereo not drawn) — higher, 156 to 158 °C
- CN(C)C(=O)[C@@H]1C[C@H]1C(=O)c1c[nH]c2ccc(F)cc12 (relative stereo) — higher, 239 to 241 °C
- CC1(C)CC(OC(=O)CCCCCCCCC(=O)OC2CC(C)(C)N(OCc3ccccc3)C(C)(C)C2)CC(C)(C)N1OCc1ccccc1 — lower, 58 to 61 °C
- COc1ccc(S(=O)(=O)Nc2nc(-c3cccc([N+](=O)[O-])c3)c(CN(C)C)s2)cc1OC — higher, 203 °C
- OC1CCCc2sccc21 (stereo not drawn) — lower, 58 to 60 °C
- Cn1nc(-c2c(F)cccc2Cl)nc1C(=O)c1ccc(Cl)cc1 — higher, 108 to 111 °C
- O=C(CCC(C(=O)O)N1C(=O)c2ccccc2C1=O)OCc1ccccc1 (stereo not drawn) — higher, 96 to 98 °C
- CCN(CC)c1ccc(N(Cc2ccc(N)c(OC)c2)C(N)=O)c(C)c1 — higher, 110 to 115 °C
- COc1cc(N(C)C)c(Cl)cc1C(=O)NC1CCN(Cc2ccc(Cl)cc2)C1 (stereo not drawn) — higher, 172 to 173 °C
- CCOC(=O)c1c(Sc2ccccc2)n(C2CC2)c2c(F)c(F)c(F)cc2c1=O — higher, 135 to 137 °C
- O=C(O)c1ccc(-c2ccc3c(c2)CCN(CCN2CCCC2)C3)cc1 — higher, 269 to 271 °C
- O=C(Nc1ccccc1S(=O)(=O)N1CCCCC1)N[C@@H](Cc1ccc(Oc2nccc3cnccc23)cc1)C(=O)O — higher, 140 °C
- O=C(/C=C/C=C/c1ccccc1[N+](=O)[O-])NCCCCCC(=O)NO — higher, 131 to 133 °C
- Cc1cc2c(Cl)c3ccccc3c(C=O)c2cc1C — higher, 150 to 153 °C
- CC(C)c1nc(COC(N)=O)n(C)c1Sc1cc(Cl)cc(Cl)c1 — higher, 146 to 148 °C
- COc1cc2cc3c(Nc4ccc(Sc5nccn5C)c(Cl)c4)c(C#N)cnc3cc2cc1OCCCN1CCOCC1 — higher, 230 to 235 °C
- CN1C(=O)CC[C@]2(C)c3ccc(-c4c5ccccc5cc5ccccc45)cc3CC[C@@H]12 — higher, 95 to 110 °C
- Cc1cc(C)cc(NCc2ccc3nc(NCC(O)CN4CCOCC4)n(Cc4nc(C)ccc4O)c3c2)c1 (stereo not drawn) — higher, 198 °C
- CN1Cc2c(c3cc(CCN4CCN(c5nsc6ccccc56)CC4)ccc3[nH]c2=O)C1 — higher, 205 to 207 °C
- OC(CCN1CCC(c2ccc(F)cc2)CC1)c1ccc(-c2ccccc2)cc1 (stereo not drawn) — higher, 129 to 132 °C
- CCC(=O)NS(=O)(=O)c1ccc(C(=O)C=Cc2cc(-c3cc4ccccc4[nH]3)c(OC)cc2OC)cc1 — higher, 223 to 225 °C
- Cc1ccc(S(=O)(=O)OCC2COc3ccc4[nH]c(=O)[nH]c4c3O2)cc1 (stereo not drawn) — higher, 202 to 204 °C
- NC(=NCC(F)(F)F)Nc1nc(CCCCNc2nc3ccccc3[nH]2)cs1 — higher, 183 to 186 °C
- CN(C)C(=O)C(Nc1ccccc1)c1ccccc1 (stereo not drawn) — higher, 134 to 137 °C
- CC1(C)C2CC[C@@]1(C)C(=O)C(C(=O)Nc1ccc(Cl)cc1)C2=O (stereo partly drawn) — higher, 88 to 90 °C
- CC(C)(C)OC(=O)CNC(=O)CC(C1CCCCC1)C1CCCCC1 — lower, 72 to 74 °C
- Cc1cc(F)ccc1Nc1nc(N(C)c2ccccc2)c2cc(OCCCN(C)C)ccc2n1 — higher, 103 to 104 °C
- CCCOc1cc2c(=O)cc(C(=O)O)[nH]c2ccc1=O — higher, > 250 °C
- O=C(c1ccc(-c2cc3cnc(Nc4cccc(Cl)c4)nc3[nH]2)cc1)N1CCOCC1 — higher, > 250 °C
- COc1ccc(C=CC(=O)O)cc1-c1cc2c(cc1OCCN1CCCCC1)C(C)(C)CCC2(C)C — higher, 251 to 253 °C
- COC(=O)c1ccc(S(C)(=O)=O)c(OS(=O)(=O)C(F)(F)F)c1Cl — lower, 69 °C
- COc1ccc(-c2cc(C#N)c(=O)[nH]c2C)cc1 — higher, 258 to 259 °C
